From US11851681B2, “Cell preparation method” (KYOTO PREFECTURAL PUBLIC UNIVERSITY CORPORATION, priority 2015, dated 2023)

Test system: human dermal fibroblasts; HDFs
Assay: Real-time RT-PCR of Sox9 and Aggrican in cartilage induction medium, Example 8
Type: cell-based
Details: ALK5 inhibitor II 2 μM, Cyclic Pifithrin-α 5 μM, day 18, FIG. 8
Description: The concentrations of the compounds are as follows: • Cyclic Pifithrin-α: 5 μM • ALK5 inhibitor II: 2 μM.

Cc1ccc(-c2cn3c4c(sc3n2)CCCC4)cc1 [Cyclic Pifithrin-α]
conversion of fibroblast to chondrocyte, Sox9 and Aggrican mRNA: does not promote conversion of fibroblast to chondrocyte
